We go through twelve compounds from patent US9580390B2, “Indazole compounds as kinase inhibitors and method of treating cancer with same” (University Health Network, priority 2011, dated 2017).

One test addresses T1, human TTK (Homo sapiens, UniProt P33981).
T1 construct: amino terminal GST fusion of full length human TTK; purchased Invitrogen
T1 sequence (P33981 1-857): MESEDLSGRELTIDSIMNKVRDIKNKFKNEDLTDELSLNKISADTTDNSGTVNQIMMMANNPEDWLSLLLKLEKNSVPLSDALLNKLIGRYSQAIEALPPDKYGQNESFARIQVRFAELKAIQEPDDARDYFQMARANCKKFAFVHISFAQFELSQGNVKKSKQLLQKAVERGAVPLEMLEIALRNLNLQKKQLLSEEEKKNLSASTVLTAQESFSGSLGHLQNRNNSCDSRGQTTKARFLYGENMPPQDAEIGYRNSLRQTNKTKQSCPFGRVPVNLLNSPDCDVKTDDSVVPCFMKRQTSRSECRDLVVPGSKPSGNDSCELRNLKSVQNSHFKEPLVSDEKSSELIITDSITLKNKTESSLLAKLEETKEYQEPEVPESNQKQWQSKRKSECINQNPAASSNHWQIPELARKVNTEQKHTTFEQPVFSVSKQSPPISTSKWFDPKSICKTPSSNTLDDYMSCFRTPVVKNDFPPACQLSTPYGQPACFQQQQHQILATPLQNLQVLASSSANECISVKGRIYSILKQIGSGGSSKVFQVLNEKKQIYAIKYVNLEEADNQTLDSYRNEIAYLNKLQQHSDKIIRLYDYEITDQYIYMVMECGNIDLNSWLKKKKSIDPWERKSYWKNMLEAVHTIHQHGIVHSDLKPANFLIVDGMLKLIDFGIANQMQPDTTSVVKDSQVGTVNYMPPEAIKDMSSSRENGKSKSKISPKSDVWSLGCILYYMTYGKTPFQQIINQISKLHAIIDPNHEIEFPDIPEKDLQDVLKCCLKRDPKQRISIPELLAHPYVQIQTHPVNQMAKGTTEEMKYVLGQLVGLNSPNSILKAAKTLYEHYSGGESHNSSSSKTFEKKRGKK
The experiment in a line: TTK inhibition assay (indirect ELISA). The format is biochemical. The conditions noted are these: read-out: TTK IC50 Range. A general note: An ELISA detects its analyte on a solid surface through an enzyme-linked reagent.

A further test deals with TICs (Colon 12). Description: Colon tumor-initiating cell growth inhibition (Alamar Blue). The test is classed as cell-based. Conditions: 216 h, 9 days, read-out: Tumor Initiating Cell GI50 Range Colon 12. For orientation: Resazurin is reduced to fluorescent resorufin, in cell work by metabolically active cells.
Test [1] deals with ovarian cancer cells (PA-1). The experiment in a line: Cancer cell line growth inhibition (SRB assay). The format is cell-based. Conditions: read-out: Cancer Cell Line GI50 Range PA-1. A general note: In SRB staining, fixed cells bind dye roughly in proportion to their protein.
The next test has as its target T2, human PLK4 (Homo sapiens, UniProt O00444).
T2 construct: amino terminal GST fusion of residues 1-391 of human PLK4; made in house; host or cells: E. coli
T2 sequence (O00444 1-391): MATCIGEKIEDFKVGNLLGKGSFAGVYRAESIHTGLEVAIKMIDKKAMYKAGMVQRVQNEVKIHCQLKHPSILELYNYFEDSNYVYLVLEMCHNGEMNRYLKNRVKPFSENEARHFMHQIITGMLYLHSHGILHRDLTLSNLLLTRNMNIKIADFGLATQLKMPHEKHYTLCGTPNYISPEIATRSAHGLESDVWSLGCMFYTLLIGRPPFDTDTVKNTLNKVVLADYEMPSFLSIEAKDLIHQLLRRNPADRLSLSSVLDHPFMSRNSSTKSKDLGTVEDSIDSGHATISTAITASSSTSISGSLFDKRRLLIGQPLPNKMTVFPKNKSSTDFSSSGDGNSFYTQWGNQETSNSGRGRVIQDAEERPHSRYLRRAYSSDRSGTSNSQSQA
Description: PLK4 inhibition assay (indirect ELISA). The test is classed as biochemical. Conditions: 15 μM ATP. An outline of the steps: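 Dephosphorylated GST-PLK4 (residues 1-391, E. coli; 4 nM) was preincubated 15 min with compound, then reacted 30 min with 15 μM ATP in HEPES pH 7.4, MgCl2, Brij 35 on MBP-coated plates. Phospho-MBP was detected by antibody/HRP ELISA at 450 nm; IC50 from 10-point titration by 4-parameter logistic fit, or single 10 μM % inhibition.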

Test [2] concerns colon cancer cells (HCT116). The experiment in a line: Cancer cell line growth inhibition (SRB assay). The format is cell-based. Conditions: Homo sapiens, HCT-116, read-out: Cancer Cell Line GI50 Range HCT116.
Another test relates to TICs (Ovarian 2393A). The experiment in a line: Ovarian tumor-initiating cell growth inhibition (Alamar Blue). The conditions noted are these: 144 h, 6 days, read-out: Tumor Initiating Cell GI50 Range Ovarain 2393A. The format is cell-based.
In another test the test system is Breast cancer cells. The experiment in a line: Cancer cell line growth inhibition (SRB assay). Conditions: Homo sapiens; MDA-MB-468; read-out: Cancer Cell Line GI50 Range MDA-MB-468. The format is cell-based.
[3] abbreviates: PA-1 ovarian cancer cells, SRB assay.
Setting [4] is: HCT116 colon cancer cells, SRB assay.

Read-outs that look alike come from different tables or passages of the source. Some results are limits rather than exact numbers.

Description for TICs (Colon 12): Materials and Methods: Non-tissue or tissue cultured treated T-75 flask and 96-well plates were purchased from VWR. Vitamin B-27 supplement, MEM NEAA (minimum essential medium non essential amino acids), sodium pyruvate, L-glutamine, N2 supplement, penicillin-streptomycin and fungizone/amphotericin B were obtained from Invitrogen. Lipid mixture, heparin and EGF were purchased from Sigma; bFGF from BD Biosciences. Tumor Initiating Cells (TICs) from colon were routinely maintained using non-tissue cultured treated T-75 flasks in DMEM:F12 medium containing 0.2×B-27 supplement, 4 ug/ml heparin, 1×MEM NEAA, 1× sodium pyruvate, 1 mM glutamine, 10 pg/ul bFGF, 20 pg/ul EGF, 1×N2 supplement, lipid mixture, penicillin-streptomycin and fungizone/amphotericin B. Ovarian TICs were routinely maintained using tissue cultured treated T-75 flasks in DMEM:F12 medium containing 1×B-27 supplement, 4 ug/ml heparin, 20 pg/ul bFGF, 20 pg/ul EGF and penicillin-streptomycin.
Assay Protocol: Compounds described herein were dissolved in DMSO and further diluted in cell culture medium for GI50 determination. Colon TICs were trypsinized and seeded into non-tissue cultured treated 96-well plates with 4,000 cells/well. After 24 h, compound was added into the cell culture at different concentrations, and the final concentration of DMSO was adjusted to 0.1%. Cells were then cultured at 37° C. for 9 days. Ovarian TICs were trypsinized and seeded into tissue cultured treated 96-well plates with 1,000 cells/well. After 24 h, compound was added into the cell culture at different concentrations, and the final concentration of DMSO was adjusted to 0.1%. Cells were then cultured at 37° C. for 6 days. Cell viability was assessed by Alamar Blue assay: 10 ul of Alamar Blue was added into each well. After 4 hours incubation at 37° C., fluorescence was recorded at excitation 544 and emission 590. GI50 (Growth inhibition) was calculated using GraphPad Prism 4.0 software.

Broadly, the IC50 is the concentration at which inhibition is half-maximal. As a reminder, the GI50 is the concentration at which growth is held to half of that of the control. Consider `CC(C)C[C@H](NC(=O)c1ccc2[nH]nc(-c3ccc(N4CCN(C5COC5)CC4)cc3)c2c1)c1ccccc1Cl` [Example A299, (S)-N-(1-(2-chlorophenyl)-3-methylbutyl)-3-(4-(4-(oxetan-3-yl)piperazin-1-yl)phenyl)-1H-indazole-5-carboxamide], for which the half-maximal inhibitory concentration (IC50) on human TTK is under 0.1 µM; at human PLK4, under 0.05 µM. Further, the GI50 in the test on TICs (Colon 12) (Colon 12 TICs) is under 0.1 µM; in test [1] (Homo sapiens, PA-1), under 0.1 µM; in test [2], under 0.1 µM; with TICs (Ovarian 2393A) (Ovarian 2393A TICs) it was under 0.1 µM; in the test with Breast cancer cells, under 0.1 µM.
On to `CN1C2CCC1CC(Oc1ccc(-c3n[nH]c4ccc(C(=O)N[C@H](c5ccccc5Cl)C5CC5)cc34)cc1)C2` (stereo partly drawn) [Example A235, N-((S)-(2-chlorophenyl)(cyclopropyl)methyl)-3-(4-(((1R,3R,5S)-8-methyl-8-azabicyclo[3.2.1]octan-3-yl)oxy)phenyl)-1H-indazole-5-carboxamide], for which the half-maximal inhibitory concentration (IC50) was under 0.1 µM at human TTK and under 0.05 µM at human PLK4. For the same compound, the GI50 in the test with TICs (Colon 12) (Colon 12 TICs) is under 0.1 µM; in test [1] (Homo sapiens, PA-1), under 0.1 µM; in test [2], under 0.1 µM; in the test with TICs (Ovarian 2393A) (Ovarian 2393A TICs), under 0.1 µM; in the test on Breast cancer cells, under 0.1 µM.
`CN1C2CCC1CC(Oc1ccc(-c3n[nH]c4ccc(C(=O)N[C@@H](c5ccccc5Cl)C5CC5)cc34)cc1)C2` (stereo partly drawn) [Example A234, N-((R)-(2-chlorophenyl)(cyclopropyl)methyl)-3-(4-(((1R,3R,5S)-8-methyl-8-azabicyclo[3.2.1]octan-3-yl)oxy)phenyl)-1H-indazole-5-carboxamide]: the figures for the IC50 on human TTK and on human PLK4 were under 0.1 µM and under 0.05 µM, respectively. Besides, the GI50 with TICs (Colon 12) (Colon 12 TICs) was 0.1 to 0.5 µM; in test [1] (Homo sapiens, PA-1), under 0.1 µM; in test [2], under 0.1 µM; in the test with TICs (Ovarian 2393A) (Ovarian 2393A TICs) it was 0.1 to 0.5 µM; in the test with Breast cancer cells, 0.1 to 0.5 µM.
For `CC(C)[C@H](NC(=O)c1ccc2[nH]nc(-c3ccc(OC4CCN(C=O)CC4)cc3)c2c1)c1ccccc1Cl` [Example A334, (S)-N-(1-(2-chlorophenyl)-2-methylpropyl)-3-(4-((1-formylpiperidin-4-yl)oxy)phenyl)-1H-indazole-5-carboxamide], the IC50 is under 0.1 µM on human TTK and under 0.05 µM at human PLK4. Also, the concentration for 50% growth inhibition (GI50) was under 0.1 µM in the test on TICs (Colon 12) (Colon 12 TICs); under 0.1 µM in test [1] (Homo sapiens, PA-1); under 0.1 µM in test [2]; under 0.1 µM in the test on TICs (Ovarian 2393A) (Ovarian 2393A TICs).
With `CC(C)[C@H](NC(=O)c1ccc2[nH]nc(-c3ccc(OC4CC5CCC(C4)N5C)cc3)c2c1)c1ccccc1Cl` (stereo partly drawn) [Example A287, N-((S)-1-(2-chlorophenyl)-2-methylpropyl)-3-(4-(((1R,3R,5S)-8-methyl-8-azabicyclo[3.2.1]octan-3-yl)oxy)phenyl)-1H-indazole-5-carboxamide], the half-inhibitory concentration (IC50) is under 0.1 µM on human TTK and under 0.05 µM at human PLK4. For the same compound, the concentration for 50% growth inhibition (GI50) in the test on TICs (Colon 12) (Colon 12 TICs) is 0.1 to 0.5 µM; in test [1] (Homo sapiens, PA-1) it was under 0.1 µM; in test [2] it was under 0.1 µM; in the test on TICs (Ovarian 2393A) (Ovarian 2393A TICs) it was 0.1 to 0.5 µM; in the test with Breast cancer cells, under 0.1 µM.
Regarding `CC(C)[C@@H](NC(=O)c1ccc2[nH]nc(-c3ccc(OC4CC5CCC(C4)N5C)cc3)c2c1)c1ccccc1Cl` (stereo partly drawn) [Example A288, N-((R)-1-(2-chlorophenyl)-2-methylpropyl)-3-(4-(((1R,3R,5S)-8-methyl-8-azabicyclo[3.2.1]octan-3-yl)oxy)phenyl)-1H-indazole-5-carboxamide], the half-inhibitory concentration (IC50) at human TTK was under 0.1 µM; at human PLK4, under 0.05 µM. Moreover, the GI50 is 0.1 to 0.5 µM with TICs (Colon 12) (Colon 12 TICs); 0.1 to 0.5 µM in test [1] (Homo sapiens, PA-1); under 0.1 µM in test [2]; 0.1 to 0.5 µM in the test on TICs (Ovarian 2393A) (Ovarian 2393A TICs); 0.1 to 0.5 µM in the test with Breast cancer cells.
Consider `CN1C2CCC1CC(Oc1ccc(-c3n[nH]c4ccc(C(=O)N[C@@H](c5ccsc5)C5CCCC5)cc34)cc1)C2` (stereo partly drawn) [Example A247, N-((R)-cyclopentyl(thiophen-3-yl)methyl)-3-(4-(((1R,3R,5S)-8-methyl-8-azabicyclo[3.2.1]octan-3-yl)oxy)phenyl)-1H-indazole-5-carboxamide], for which the IC50 at human TTK is under 0.1 µM; on human PLK4, under 0.05 µM. The GI50 lay in the range of 0.1 to 0.5 µM with TICs (Colon 12) (Colon 12 TICs); 0.1 to 0.5 µM in test [1] (Homo sapiens, PA-1); 0.1 to 0.5 µM in test [2]; 0.1 to 0.5 µM with TICs (Ovarian 2393A) (Ovarian 2393A TICs); 0.1 to 0.5 µM with Breast cancer cells.
For the compound `CC(C)C[C@H](NC(=O)c1ccc2[nH]nc(-c3ccc(OC4CC5CCC(C4)N5C=O)cc3)c2c1)c1ccccn1` (stereo partly drawn) [Example A358, 3-(4-(((1R,3R,5S)-8-formyl-8-azabicyclo[3.2.1]octan-3-yl)oxy)phenyl)-N-((S)-3-methyl-1-(pyridin-2-yl)butyl)-1H-indazole-5-carboxamide], the concentration for half-maximal inhibition (IC50) is under 0.1 µM on human TTK and under 0.05 µM on human PLK4. For the same compound, the 50% growth inhibitory concentration (GI50) in the test with TICs (Colon 12) (Colon 12 TICs) is under 0.1 µM; in test [1] (Homo sapiens, PA-1), under 0.1 µM; in test [2], under 0.1 µM; in the test with TICs (Ovarian 2393A) (Ovarian 2393A TICs), under 0.1 µM; in the test on Breast cancer cells, under 0.1 µM.
As to `CC(C)[C@H](NC(=O)c1ccc2[nH]nc(-c3ccc(OC4CC5CCC(C4)N5C=O)cc3)c2c1)c1ccccc1Cl` (stereo partly shown) [Example A333], the IC50 at human TTK was under 0.1 µM; on human PLK4, under 0.05 µM. Besides, the 50% growth inhibitory concentration (GI50) is under 0.1 µM in the test on TICs (Colon 12) (Colon 12 TICs); under 0.1 µM in test [1] (Homo sapiens, PA-1); under 0.1 µM in test [2]; under 0.1 µM in the test with TICs (Ovarian 2393A) (Ovarian 2393A TICs).
For the compound `CC[C@@H](NC(=O)c1ccc2[nH]nc(-c3ccc(OC4CCN(CCOC)CC4)cc3)c2c1)c1ccccc1Cl` [Example A128, (R)-N-(1-(2-chlorophenyl)propyl)-3-(4-((1-(2-methoxyethyl)piperidin-4-yl)oxy)phenyl)-1H-indazole-5-carboxamide], the GI50 is under 0.1 µM in the test with TICs (Colon 12) (colon TICs, Alamar Blue); 0.1 to 0.5 µM in test [1] (setting [3]); under 0.1 µM in test [2] (setting [4]); 0.1 to 0.5 µM with TICs (Ovarian 2393A) (ovarian TICs, Alamar Blue). Also, on human PLK4, the IC50 is under 0.05 µM.
For `CN1CCC(Oc2ccc(-c3n[nH]c4ccc(C(=O)N[C@H](CCO)c5ccccc5)cc34)cc2Cl)CC1` [Example A202, (R)-3-(3-chloro-4-((1-methylpiperidin-4-yl)oxy)phenyl)-N-(3-hydroxy-1-phenylpropyl)-1H-indazole-5-carboxamide], the GI50 with TICs (Colon 12) (colon TICs, Alamar Blue) was 0.1 to 0.5 µM; in test [1] (setting [3]), under 0.1 µM; in test [2] (setting [4]), under 0.1 µM; in the test on TICs (Ovarian 2393A) (ovarian TICs, Alamar Blue) it was 0.1 to 0.5 µM. The IC50 on human PLK4 is under 0.05 µM.
As for `CO[C@@H](C(=O)Nc1ccc2[nH]nc(-c3ccc(OC4CCN(C=O)CC4)cc3)c2c1)c1ccccc1` [Example A169, (R)-N-(3-(4-((1-formylpiperidin-4-yl)oxy)phenyl)-1H-indazol-5-yl)-2-methoxy-2-phenylacetamide], the GI50 with TICs (Colon 12) (colon TICs, Alamar Blue) was over 0.5 µM; in test [1] (setting [3]), 0.1 to 0.5 µM; in test [2] (setting [4]), 0.1 to 0.5 µM; with TICs (Ovarian 2393A) (ovarian TICs, Alamar Blue), over 0.5 µM. Further, the IC50 at human PLK4 was under 0.05 µM.
